Measured values reported in PubChem BioAssay (NCI).
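Each compound was tested at five concentrations against cells in 96-well plates for 48 hours. Definition used: TGI = concentration required for complete inhibition of growth.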

These compounds were tested on MDA-MB-231 breast (assay: NCI anticancer screen, dose series, 48 h).

Compared with CC1S/C(=N/c2nnc(-c3ccccc3)o2)NC1=O (stereo not drawn), COc1ccc(NC2=CC(=O)C(=O)c3ccccc32)nn1 is lower in TGI: greater than 100 µM for the first, 34.8 µM for the second.

CC1(C)CNC(=O)C2(C=NC(C)(C)CNC(=O)C3(C=N1)CCCO3)CCCO2 (stereo not drawn) and CC1(C(=O)O)CCCC1C(=O)O (stereo not drawn) cannot be ordered by TGI: greater than 10 µM for the first, greater than 100 µM for the second.

CC(=S)N=Cc1c(O)cc(C)oc1=O and C=c1c(OC)c(OC)c(O)c2c1=c1cc([N+](=O)[O-])cc(OC)c1=N2 cannot be ordered by TGI: greater than 100 µM for the first, greater than 100 µM for the second.

What follows are compounds tested on NCI-H460 lung (assay: NCI anticancer screen, dose series, 48 h).

Compared with C=C1C(=O)O[C@@]23C1CC[C@@H](C)C2CC[C@@]1(C)OC31 (stereo partly drawn), CC1(C(=O)O)CCCC1C(=O)O (stereo not drawn) is higher in TGI: 35.2 µM for the first, greater than 100 µM for the second.

CC(=S)N=Cc1c(O)cc(C)oc1=O and C=c1c(OC)c(OC)c(O)c2c1=c1cc([N+](=O)[O-])cc(OC)c1=N2 cannot be ordered by TGI: greater than 100 µM for the first, greater than 100 µM for the second.

COc1ccc(NC2=CC(=O)C(=O)c3ccccc32)nn1 gave a TGI of 3.49 µM.

What follows are compounds tested on SN12C renal (assay: NCI anticancer screen, dose series, 48 h).

C=C1C(=O)O[C@@]23C1CC[C@@H](C)C2CC[C@@]1(C)OC31 (stereo partly drawn) and CC1(C)CNC(=O)C2(C=NC(C)(C)CNC(=O)C3(C=N1)CCCO3)CCCO2 (stereo not drawn) cannot be ordered by TGI: 21.5 µM for the first, greater than 10 µM for the second.

O=c1[nH]nc(-c2ccccc2)c2[nH]c(-c3ccccc3)cc12 and CC1S/C(=N/c2nnc(-c3ccccc3)o2)NC1=O (stereo not drawn) cannot be ordered by TGI: greater than 100 µM for the first, greater than 100 µM for the second.

CC(=S)N=Cc1c(O)cc(C)oc1=O and C=c1c(OC)c(OC)c(O)c2c1=c1cc([N+](=O)[O-])cc(OC)c1=N2 cannot be ordered by TGI: greater than 100 µM for the first, greater than 100 µM for the second.

First: COc1ccc(NC2=CC(=O)C(=O)c3ccccc32)nn1
Second: CC1(C(=O)O)CCCC1C(=O)O (stereo not drawn)
The TGI of the first is lower: 3.52 µM for the first, greater than 100 µM for the second.

What follows are compounds tested on NCI-H522 lung (assay: NCI anticancer screen, dose series, 48 h).

C=C1C(=O)O[C@@]23C1CC[C@@H](C)C2CC[C@@]1(C)OC31 (stereo partly drawn) and CC1(C)CNC(=O)C2(C=NC(C)(C)CNC(=O)C3(C=N1)CCCO3)CCCO2 (stereo not drawn) cannot be ordered by TGI: 20.2 µM for the first, greater than 10 µM for the second.

Going from CC1S/C(=N/c2nnc(-c3ccccc3)o2)NC1=O (stereo not drawn) to COc1ccc(NC2=CC(=O)C(=O)c3ccccc32)nn1, the TGI falls from greater than 100 µM to 2.16 µM.

CC(=S)N=Cc1c(O)cc(C)oc1=O and C=c1c(OC)c(OC)c(O)c2c1=c1cc([N+](=O)[O-])cc(OC)c1=N2 cannot be ordered by TGI: greater than 100 µM for the first, greater than 100 µM for the second.

Work on CC1(C(=O)O)CCCC1C(=O)O (stereo not drawn) yielded a TGI greater than 100 µM.

Each compound was assayed on T-47D breast (assay: NCI anticancer screen, dose series, 48 h).

C=C1C(=O)O[C@@]23C1CC[C@@H](C)C2CC[C@@]1(C)OC31 (stereo partly drawn) and CC1(C)CNC(=O)C2(C=NC(C)(C)CNC(=O)C3(C=N1)CCCO3)CCCO2 (stereo not drawn) cannot be ordered by TGI: 19.2 µM for the first, greater than 10 µM for the second.

O=c1[nH]nc(-c2ccccc2)c2[nH]c(-c3ccccc3)cc12 and CC1S/C(=N/c2nnc(-c3ccccc3)o2)NC1=O (stereo not drawn) cannot be ordered by TGI: greater than 100 µM for the first, greater than 100 µM for the second.

CC(=S)N=Cc1c(O)cc(C)oc1=O and C=c1c(OC)c(OC)c(O)c2c1=c1cc([N+](=O)[O-])cc(OC)c1=N2 cannot be ordered by TGI: greater than 100 µM for the first, greater than 100 µM for the second.

Going from COc1ccc(NC2=CC(=O)C(=O)c3ccccc32)nn1 to CC1(C(=O)O)CCCC1C(=O)O (stereo not drawn), the TGI rises from 11.9 µM to greater than 100 µM.

These compounds were tested on BT-549 breast (assay: NCI anticancer screen, dose series, 48 h).

C=C1C(=O)O[C@@]23C1CC[C@@H](C)C2CC[C@@]1(C)OC31 (stereo partly drawn) and CC1(C)CNC(=O)C2(C=NC(C)(C)CNC(=O)C3(C=N1)CCCO3)CCCO2 (stereo not drawn) cannot be ordered by TGI: 23.7 µM for the first, greater than 10 µM for the second.

O=c1[nH]nc(-c2ccccc2)c2[nH]c(-c3ccccc3)cc12 and CC1S/C(=N/c2nnc(-c3ccccc3)o2)NC1=O (stereo not drawn) cannot be ordered by TGI: greater than 100 µM for the first, greater than 100 µM for the second.

CC(=S)N=Cc1c(O)cc(C)oc1=O and C=c1c(OC)c(OC)c(O)c2c1=c1cc([N+](=O)[O-])cc(OC)c1=N2 cannot be ordered by TGI: greater than 100 µM for the first, greater than 100 µM for the second.

Compared with COc1ccc(NC2=CC(=O)C(=O)c3ccccc32)nn1, CC1(C(=O)O)CCCC1C(=O)O (stereo not drawn) is higher in TGI: 2.05 µM for the first, greater than 100 µM for the second.

These compounds were tested on OVCAR-5 ovarian (assay: NCI anticancer screen, dose series, 48 h).

Compared with C=C1C(=O)O[C@@]23C1CC[C@@H](C)C2CC[C@@]1(C)OC31 (stereo partly drawn), CC1(C(=O)O)CCCC1C(=O)O (stereo not drawn) is higher in TGI: 26.7 µM for the first, greater than 100 µM for the second.

O=c1[nH]nc(-c2ccccc2)c2[nH]c(-c3ccccc3)cc12 and CC1S/C(=N/c2nnc(-c3ccccc3)o2)NC1=O (stereo not drawn) cannot be ordered by TGI: greater than 100 µM for the first, greater than 100 µM for the second.

CC(=S)N=Cc1c(O)cc(C)oc1=O and C=c1c(OC)c(OC)c(O)c2c1=c1cc([N+](=O)[O-])cc(OC)c1=N2 cannot be ordered by TGI: greater than 100 µM for the first, greater than 100 µM for the second.

COc1ccc(NC2=CC(=O)C(=O)c3ccccc32)nn1 showed a TGI of 3.45 µM.

The compounds below were run on LOX IMVI melanoma (assay: NCI anticancer screen, dose series, 48 h).

First: C=C1C(=O)O[C@@]23C1CC[C@@H](C)C2CC[C@@]1(C)OC31 (stereo partly drawn)
Second: CC1S/C(=N/c2nnc(-c3ccccc3)o2)NC1=O (stereo not drawn)
The TGI of the first is lower: 26.6 µM for the first, greater than 100 µM for the second.

O=c1[nH]nc(-c2ccccc2)c2[nH]c(-c3ccccc3)cc12 and CC(=S)N=Cc1c(O)cc(C)oc1=O cannot be ordered by TGI: greater than 100 µM for the first, greater than 100 µM for the second.
